For the assay, the system named is CD2F1 mice, L1210 leukemia ip, survival T/C. As to the kind of experiment: NCI In Vivo Anticancer Drug Screen. Data for tumor model L1210 Leukemia (intraperitoneal) in CD2F1 (CDF1) mice. Particulars: higher = longer survival. The procedure, abridged: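 Antitumor effect is scored in animals hosting a serially transplanted tumor. Values compare compound-dosed animals against vehicle-only controls as a simple quotient.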

The structures appear in SMILES notation. Several values for one entry are separate records, joined by “and”; a condition that tells them apart may be missing. Equal values may be shown once. Toxic doses and inconclusive results are not listed.

On to `Nc1n[n+](-c2ccccc2)no1`, for which the T/C by setting is: (endpoint: mean survival time, dose: 1.56 mg/kg/injection, schedule: Q01DX009 (ip), vehicle: water) 106 % of control; (endpoint: mean survival time, dose: 3.12 mg/kg/injection, schedule: Q01DX009 (ip), vehicle: water) 97 % of control and 100 % of control; (endpoint: mean survival time, dose: 6.25 mg/kg/injection, schedule: Q01DX009 (ip), vehicle: water) 102 % of control and 105 % of control; (endpoint: mean survival time, dose: 12.5 mg/kg/injection, schedule: Q01DX009 (ip), vehicle: water) 101 % of control and 108 % of control; (endpoint: mean survival time, dose: 25.0 mg/kg/injection, schedule: Q01DX009 (ip), vehicle: water) 121 % of control and 111 % of control; (endpoint: mean survival time, dose: 50.0 mg/kg/injection, schedule: Q01DX009 (ip), vehicle: water) 94 % of control.
For the molecule `Nc1n[nH]c(N)n1`, the T/C is 100 % of control (endpoint: mean survival time, dose: 3.2 mg/kg/injection, schedule: Q## X008 (iv), vehicle: water); 103 % of control (endpoint: mean survival time, dose: 6.3 mg/kg/injection, schedule: Q## X008 (iv), vehicle: water); 100 % of control (endpoint: mean survival time, dose: 12.5 mg/kg/injection, schedule: Q## X004 (iv), vehicle: water); 102 % of control (endpoint: mean survival time, dose: 12.5 mg/kg/injection, schedule: Q## X008 (iv), vehicle: water); 104 % of control (endpoint: mean survival time, dose: 25.0 mg/kg/injection, schedule: Q## X004 (iv), vehicle: water); 101 % of control (endpoint: mean survival time, dose: 25.0 mg/kg/injection, schedule: Q## X008 (iv), vehicle: water). The T/C is, setting by setting: (endpoint: mean survival time, dose: 50.0 mg/kg/injection, schedule: Q03HX024 (ip), vehicle: saline) 103 % of control; (endpoint: mean survival time, dose: 50.0 mg/kg/injection, schedule: Q## X004 (iv), vehicle: water) 103 % of control; (endpoint: mean survival time, dose: 50.0 mg/kg/injection, schedule: Q## X008 (iv), vehicle: water) 103 % of control; (endpoint: mean survival time, dose: 50.0 mg/kg/injection, schedule: Q## X068 (ip), vehicle: water) 110 % of control; (endpoint: mean survival time, dose: 50.0 mg/kg/injection, schedule: Q#A X002 (iv), vehicle: water) 106 % of control; (endpoint: mean survival time, dose: 100.0 mg/kg/injection, schedule: Q01DX007 (ip), vehicle: saline) 113 % of control. Further, the T/C is 104 % of control (endpoint: mean survival time, dose: 100.0 mg/kg/injection, schedule: Q01DX009 (ip), vehicle: saline); 105 % of control (endpoint: mean survival time, dose: 100.0 mg/kg/injection, schedule: Q03DX003 (ip), vehicle: saline); 117 % of control and 103 % of control and 112 % of control (endpoint: mean survival time, dose: 100.0 mg/kg/injection, schedule: Q03HX024 (ip), vehicle: saline); 105 % of control (endpoint: mean survival time, dose: 100.0 mg/kg/injection, schedule: Q04DX003 (ip), vehicle: saline); 105 % of control (endpoint: mean survival time, dose: 100.0 mg/kg/injection, schedule: Q## X004 (iv), vehicle: water); 102 % of control (endpoint: mean survival time, dose: 100.0 mg/kg/injection, schedule: Q## X008 (iv), vehicle: water). Further, the T/C is, setting by setting: (endpoint: mean survival time, dose: 100.0 mg/kg/injection, schedule: Q#A X002 (iv), vehicle: water) 96 % of control; (endpoint: mean survival time, dose: 100.0 mg/kg/injection, schedule: Q#A X034 (ip), vehicle: water) 118 % of control; (endpoint: mean survival time, dose: 200.0 mg/kg/injection, schedule: Q01DX017 (ip), vehicle: water) 113 % of control; (endpoint: mean survival time, dose: 200.0 mg/kg/injection, schedule: Q03DX003 (ip), vehicle: saline) 105 % of control; (endpoint: mean survival time, dose: 200.0 mg/kg/injection, schedule: Q04DX003 (ip), vehicle: saline) 106 % of control; (endpoint: mean survival time, dose: 200.0 mg/kg/injection, schedule: Q## X004 (iv), vehicle: water) 105 % of control. Also, the T/C is, setting by setting: (endpoint: mean survival time, dose: 200.0 mg/kg/injection, schedule: Q## X068 (ip), vehicle: water) 190 % of control; (endpoint: mean survival time, dose: 200.0 mg/kg/injection, schedule: Q#A X002 (iv), vehicle: water) 103 % of control; (endpoint: mean survival time, dose: 200.0 mg/kg/injection, schedule: Q#A X010 (ip), vehicle: water) 106 % of control; (endpoint: mean survival time, dose: 400.0 mg/kg/injection, schedule: Q01DX001 (iv), vehicle: water) 104 % of control; (endpoint: mean survival time, dose: 400.0 mg/kg/injection, schedule: Q03DX003 (ip), vehicle: saline) 113 % of control; (endpoint: mean survival time, dose: 400.0 mg/kg/injection, schedule: Q03HX024 (ip), vehicle: saline) 203 % of control and 221 % of control and 237 % of control. Also, the T/C (endpoint: mean survival time, dose: 400.0 mg/kg/injection, schedule: Q04DX003 (ip), vehicle: saline) was 106 % of control; the T/C (endpoint: mean survival time, dose: 400.0 mg/kg/injection, schedule: Q## X068 (ip), vehicle: water) is 116 % of control; the T/C (endpoint: mean survival time, dose: 400.0 mg/kg/injection, schedule: Q#A X002 (iv), vehicle: water) is 110 % of control; the T/C (endpoint: mean survival time, dose: 400.0 mg/kg/injection, schedule: Q#A X010 (ip), vehicle: water) is 113 % of control; the T/C (endpoint: mean survival time, dose: 400.0 mg/kg/injection, schedule: Q#A X018 (ip), vehicle: water) is 203 % of control; the T/C (endpoint: mean survival time, dose: 400.0 mg/kg/injection, schedule: Q#A X034 (ip), vehicle: water) was 208 % of control. Moreover, the T/C is 104 % of control (endpoint: mean survival time, dose: 512.0 mg/kg/injection, schedule: Q12HX018 (ip), vehicle: saline); 103 % of control (endpoint: mean survival time, dose: 800.0 mg/kg/injection, schedule: Q01DX001 (iv), vehicle: water); 150 % of control (endpoint: mean survival time, dose: 800.0 mg/kg/injection, schedule: Q01DX017 (ip), vehicle: water); 110 % of control (endpoint: mean survival time, dose: 800.0 mg/kg/injection, schedule: Q#A X002 (iv), vehicle: water); 122 % of control (endpoint: mean survival time, dose: 800.0 mg/kg/injection, schedule: Q#A X010 (ip), vehicle: water); 181 % of control (endpoint: mean survival time, dose: 800.0 mg/kg/injection, schedule: Q#A X018 (ip), vehicle: water). Further, the T/C is 97 % of control (endpoint: mean survival time, dose: 800.0 mg/kg/injection, schedule: Q#A X034 (ip), vehicle: water); 120 % of control (endpoint: mean survival time, dose: 1024.0 mg/kg/injection, schedule: Q12HX018 (ip), vehicle: saline); 105 % of control (endpoint: mean survival time, dose: 1600.0 mg/kg/injection, schedule: Q01DX001 (iv), vehicle: water); 165 % of control (endpoint: mean survival time, dose: 1600.0 mg/kg/injection, schedule: Q01DX017 (ip), vehicle: water).
For the molecule `N#CC1(C#N)OC(C#N)(C#N)c2ccccc21`, the T/C (endpoint: mean survival time, dose: 6.25 mg/kg/injection, schedule: Q01DX001 (ip), vehicle: saline with Tween-80) is 102 % of control; the T/C (endpoint: mean survival time, dose: 12.5 mg/kg/injection, schedule: Q01DX001 (ip), vehicle: saline with Tween-80) is 98 % of control; the T/C (endpoint: mean survival time, dose: 25.0 mg/kg/injection, schedule: Q01DX001 (ip), vehicle: saline with Tween-80) was 98 % of control.
`Cc1ccccc1C1CCC(=O)OC1=O` (stereo unspecified): the T/C runs as follows: (endpoint: mean survival time, dose: 100.0 mg/kg/injection, schedule: Q01DX001 (ip), vehicle: saline with Tween-80) 97 % of control; (endpoint: mean survival time, dose: 100.0 mg/kg/injection, schedule: Q04DX002 (ip), vehicle: saline with Tween-80) 100 % of control; (endpoint: mean survival time, dose: 200.0 mg/kg/injection, schedule: Q01DX001 (ip), vehicle: saline with Tween-80) 95 % of control; (endpoint: mean survival time, dose: 200.0 mg/kg/injection, schedule: Q04DX002 (ip), vehicle: saline with Tween-80) 103 % of control; (endpoint: mean survival time, dose: 400.0 mg/kg/injection, schedule: Q01DX001 (ip), vehicle: saline with Tween-80) 94 % of control; (endpoint: mean survival time, dose: 400.0 mg/kg/injection, schedule: Q04DX002 (ip), vehicle: saline with Tween-80) 100 % of control.
Regarding `O=C(NO)c1cc(O)c(O)c(O)c1`, the T/C (endpoint: mean survival time, dose: 100.0 mg/kg/injection, schedule: Q01DX009 (ip), vehicle: water) was 117 % of control; the T/C (endpoint: mean survival time, dose: 200.0 mg/kg/injection, schedule: Q01DX009 (ip), vehicle: distilled water + Tween-80) was 154 % of control; the T/C (endpoint: mean survival time, dose: 200.0 mg/kg/injection, schedule: Q01DX009 (ip), vehicle: water) is 156 % of control; the T/C (endpoint: mean survival time, dose: 400.0 mg/kg/injection, schedule: Q01DX009 (ip), vehicle: distilled water + Tween-80) is 104 % of control; the T/C (endpoint: mean survival time, dose: 400.0 mg/kg/injection, schedule: Q01DX009 (ip), vehicle: water) was 100 % of control; the T/C (endpoint: mean survival time, dose: 800.0 mg/kg/injection, schedule: Q01DX009 (ip), vehicle: distilled water + Tween-80) was 116 % of control. Besides, the T/C is 107 % of control (endpoint: median survival time, dose: 25.0 mg/kg/injection, schedule: Q01DX009 (ip), vehicle: distilled water + Tween-80); 120 % of control (endpoint: median survival time, dose: 50.0 mg/kg/injection, schedule: Q01DX009 (ip), vehicle: distilled water + Tween-80); 158 % of control and 162 % of control (endpoint: median survival time, dose: 200.0 mg/kg/injection, schedule: Q01DX009 (ip), vehicle: distilled water + Tween-80); 90 % of control (endpoint: median survival time, dose: 400.0 mg/kg/injection, schedule: Q01DX009 (ip), vehicle: distilled water + Tween-80).

For the origin of these results see PubChem BioAssay AID256 (DTP/NCI, 2004).
